This note sets out measurements from patent publication US9200008B2 (ASKA PHARMACEUTICAL CO., LTD., priority 2010, dated 2015).

This experiment deals with Human prostate cancer cell lines (PC-3 cells). Briefly: Measurement of cell death-inducing activity (Test Example 1). Conditions: PC-3, 48 h, 48 hours after addition, tested at 10, 1, 0.1, 0.025 and 0.00625 μmol/L, qualitative evaluation of 10 fields, read-out: Concentration showing the cell death-inducing activity (cell death-inducing rate not less than 40%). In kind it is cell-based. On the procedure:
The cell death-inducing activity of the compound represented by the formula (1) or the salt thereof was measured as follows.
Human prostate cancer cell lines (PC-3 cells) were seeded to 6-well plates at 1×10^5 cells/2 mL/well, and cultured in the presence of 5% CO2 at 37° C. for 48 hours. Thereafter, each compound was added thereto so as to provide 10, 1, 0.1, 0.025 and 0.00625 μmol/L. As a control, DMSO was added. After the addition, the cells were continuously cultured for 48 hours. […] When the cell death-inducing rate was not less than 40%, the compound was judged to have the cell death-inducing activity.

In the case of `CCc1ccccc1-c1nc(C)c(NC(=O)OCc2ccc3c(c2)nc2n3CCC2)s1` [Example 9-100], the minimal effective concentration is 0.1 µM.
As for `CCn1nc(-c2ccc(Cl)cc2OC)cc1COC(=O)Nc1ccc2c(c1)nc1n2CCOC1` [Example 13-100], the figure is 0.00625 µM.
For the molecule `CCn1ncc2cc(COC(=O)Nc3sc(-c4ccc(OC)cc4OC)nc3C)ccc21` [Example 9-138], the minimal effective concentration turned out to be 0.025 µM.
With `COCCn1cnc2cc(COC(=O)Nc3cc(-c4ccc(Cl)cc4OC)nn3C)ccc21` [Example 9-273], the minimal effective concentration was 10 µM.
As to `COc1cc(Cl)ccc1-c1cc(NC(=O)OCc2ccc3c(c2)nc2n3CCOC2)n(C)n1` [Example 9-247], the minimal effective concentration worked out at 0.00625 µM.
As for `Cc1nc(-c2cccc3c2OCC3)sc1NC(=O)OCc1ccc2c(c1)nnn2C` [Example 9-21], the figure is 10 µM; as for `COc1cc(Cl)ccc1-c1cc(COC(=O)Nc2ccc3c(c2)nc2n3CCCC2)sn1` [Example 47-7], 0.00625 µM; as for `COc1ccc(/C=N/NC(=O)c2cnc(-c3ccccc3C)s2)cc1O` [Example 23-50], 0.1 µM.
With `COc1cc(F)ccc1-c1nc(C)c(NC(=O)OCc2ccc3c(c2)ncn3C(C)C)s1` [Example 9-70], the minimal effective concentration stood at 0.1 µM.
As for `CCc1nc(-c2ccc(Cl)cc2OC)sc1NC(=O)OCc1ccc2c(c1)nc1n2CCCC1` [Example 9-172], the figure is 0.025 µM; as for `CCc1nc(-c2ccc(C)cc2C)sc1NC(=O)OCc1ccc2c(c1)nc1n2CCCC1` [Example 9-354], 1 µM.
Regarding `CCc1nc(-c2ccc(F)cc2C)sc1NC(=O)OCc1ccc2ncsc2c1` [Example 36-5], the minimal effective concentration was found to be 10 µM.
Turning to `COc1ccc(/C=N/NC(=O)c2cc(-c3ccc(Cl)cc3OC)cn2C)cc1O` [Example 23-170, 4-(4-Chloro-2-methoxyphenyl)-1-methyl-1H-pyrrole-2-carboxylic acid (3-hydroxy-4-methoxybenzylidene)hydrazide], the minimal effective concentration stood at 10 µM.
Take `CCc1nc(-c2ccc(Cl)cc2OC)sc1COC(=O)Nc1ccc2c(c1)ncn2C` [Example 13-67]: the minimal effective concentration came to 0.1 µM.
For the molecule `COc1cc(Cl)ccc1-c1nc(C)c(NC(=O)OCc2ccc3c(cnn3C)c2)s1` [Example 9-128], the minimal effective concentration worked out at 0.00625 µM.
Take `COc1cc(C)ccc1-c1cc(NC(=O)OCc2ccc3c(c2)nc2n3CCOC2)sn1` [Example 45-1]: the minimal effective concentration stood at 10 µM.
Take `O=C(N/N=C/c1ccc(O)c(Cl)c1)c1cc(-c2ccc(Cl)cc2Cl)n[nH]1` [Example 21-13]: the minimal effective concentration is 10 µM.
In the case of `CCn1cnc2cc(NC(=O)OCc3sc(-c4ccc(C)cc4C)nc3C)ccc21` [Example 13-15], the minimal effective concentration turned out to be 0.025 µM.
Turning to `COc1cc(C)ccc1-c1nc(C)c(NC(=O)OCc2ccc3ncsc3c2)s1` [Example 36-2], the minimal effective concentration stood at 1 µM.
As for `CCn1nc(-c2ccc(Cl)cc2Cl)cc1NC(=O)OC(C)c1ccc2c(c1)ncn2C` (stereo not drawn) [Example 9-337], the minimal effective concentration is 10 µM.
As for `COc1cc(Cl)ccc1-c1nc(C)c(NC(=O)OCc2ccc3nc(C)c(C)nc3c2)s1` [Example 9-200], the figure is 1 µM.
With `COc1cc(Cl)ccc1-c1cc(NC(=O)OCc2ccc3cnn(C)c3c2)n(C)n1` [Example 9-297], the minimal effective concentration is 10 µM.
As for `CCn1cnc2cc(COC(=O)Nc3sc(-c4ccc(Cl)cc4C)nc3C)ccc21` [Example 9-64], the figure is 0.00625 µM; as for `CCN(Cc1ccc(OC)cc1)NC(=O)c1cc(-c2ccc(Cl)cc2OC)n[nH]1` [Example 18-2, 5-(4-Chloro-2-methoxyphenyl)-2H-pyrazole-3-carboxylic acid N′-ethyl-N′-(4-methoxybenzyl)hydrazide], 1 µM.
As for `COc1ccccc1-c1cc(COC(=O)Nc2ccc3c(c2)nc2n3CCOC2)n(C)n1` [Example 13-95], the figure is 0.025 µM; as for `Cc1cc(Cl)ccc1-c1nc(C)c(COC(=O)Nc2ccc3c(c2)nc2n3CCCC2)s1` [Example 13-35], 0.025 µM.
Consider `Cc1ccccc1-c1cc(C(=O)N/N=C/c2cc(C)c(O)c(C)c2)sn1` [Example 27-10], for which the minimal effective concentration amounted to 0.1 µM.
As for `CCc1ccccc1-c1nc(C)c(NC(=O)OCc2ccc3c(c2)nc2n3CCCC2)s1` [Example 9-109], the minimal effective concentration was 1 µM.
`CCc1ccccc1-c1nc(C)c(NC(=O)OCc2ccc3c(c2)nc(C)n3CC)s1` [Example 9-84]: the minimal effective concentration worked out at 1 µM.
Turning to `CCn1nc(-c2ccc(Cl)cc2OC)cc1NC(=O)OCc1ccc2c(c1)nc1n2CCCC1` [Example 9-268], the minimal effective concentration came to 0.1 µM.
As to `COc1cc(C)ccc1-c1nc(C)c(NC(=O)OCc2ccc3c(c2)nc2n3CCC(O)C2)s1` (stereo not drawn) [Example 9-342], the minimal effective concentration worked out at 1 µM.
`Cc1nc(-c2ccc(Cl)cc2)sc1C(=O)N/N=C/c1ccc2occc2c1` [Example 23-161]: the minimal effective concentration stood at 1 µM.
Consider `CCc1nc(-c2ccc(F)cc2C)sc1NC(=O)OCc1ccc2c(c1)nc1n2CCC1` [Example 9-348], for which the minimal effective concentration came to 0.1 µM.
As for `COc1ccc(NC(=O)OCc2cc(-c3ccc(F)cc3OC)nn2C)cc1` [Example 13-70], the figure is 10 µM.
Turning to `CCn1ncc2cc(COC(=O)Nc3cc(-c4ccc(Cl)cc4OC)ns3)ccc21` [Example 45-4], the minimal effective concentration was determined as 10 µM.
For the molecule `COc1ccc(CN(C)NC(=O)c2sc(-c3ccc(Cl)cc3C)nc2C)cc1O` [Example 16-25], the minimal effective concentration turned out to be 0.1 µM.
`CCn1cnc2cc(COC(=O)Nc3sc(-c4ccc(Cl)cc4OC)nc3C)ccc21` [Example 9-59]: the minimal effective concentration worked out at 0.00625 µM.
Turning to `Cc1cccc(-c2nc(C)c(C(=O)N/N=C/c3ccc(OC(F)F)c(O)c3)s2)c1C` [Example 23-117], the minimal effective concentration was determined as 1 µM.
`CCCc1nc(-c2ccc(Cl)cc2OC)sc1NC(=O)OCc1ccc2c(c1)ncn2C` [Example 9-183]: the minimal effective concentration stood at 1 µM.
As for `CCn1nc(-c2ccccc2OC)cc1NC(=O)OCc1ccc2c(c1)nc1n2CCC1` [Example 9-255], the figure is 1 µM.
As for `CCn1cnc2cc(COC(=O)Nc3sc(-c4cccc(C)c4)nc3C)ccc21` [Example 9-54], the figure is 1 µM.
In the case of `Cc1ccc(C)c(-c2nc(C)c(C(=O)N/N=C/c3cc(C)c(O)c(C)c3)s2)c1` [Example 23-127], the minimal effective concentration was determined as 1 µM.
As for `CCc1nc(-c2ccc(C)cc2OC)sc1NC(=O)OCc1ccc2c(c1)nnn2C` [Example 9-372], the figure is 0.00625 µM.
With `CCN(Cc1ccc(OC)cc1)NC(=O)c1sc(-c2ccccc2OC)nc1C` [Example 16-12], the minimal effective concentration is 1 µM.
Turning to `COc1ccc(/C=N/NC(=O)c2sc(-c3ccccc3O)nc2C)cc1O` [Example 23-57], the minimal effective concentration was found to be 10 µM.
As for `CCn1nc(-c2ccc(Cl)cc2OC)cc1COC(=O)Nc1ccc2c(c1)ncn2C` [Example 13-85], the figure is 0.00625 µM; as for `CCc1nc2cc(COC(=O)Nc3sc(-c4ccc(Cl)cc4OC)nc3C)ccc2n1C` [Example 9-82], 0.025 µM.
For `CCc1nc(-c2ccc(Cl)cc2C)sc1NC(=O)OCc1ccc2c(c1)nc1n2CCCC1` [Example 9-356], the minimal effective concentration came to 0.1 µM.
As for `CCc1nc(-c2ccc(Cl)cc2OC)sc1NC(=O)OCc1ccc2c(c1)nc1n2CCOC1` [Example 9-169], the figure is 0.00625 µM; as for `COc1cc(C)ccc1-c1nc(C)c(NC(=O)OCc2ccc3c(c2)nc2n3CC(O)C2)s1` (stereo not drawn) [Example 9-341], 0.025 µM.
Consider `COc1cc(Cl)ccc1-c1nc(C)c(NC(=O)OCc2ccc3c(c2)ncn3C(C)C)s1` [Example 9-71], for which the minimal effective concentration amounted to 0.025 µM.
Turning to `Cc1cc(Cl)ccc1-c1nc(C)c(COC(=O)Nc2ccc3c(c2)nc2n3CCOC2)s1` [Example 13-26], the minimal effective concentration was 0.00625 µM.
Regarding `Cc1ccc(-c2nc(C)c(NC(=O)OCc3ccc4c(c3)nc3n4CCCCC3)s2)c(C)c1` [Example 9-124], the minimal effective concentration was found to be 10 µM.
With `COc1ccc(NC(=O)OCc2cc(-c3ccc(Cl)cc3OC)nn2C)cc1F` [Example 13-71], the minimal effective concentration was 1 µM.
As for `COc1ccc(/C=N/NC(=O)c2sc(-c3ccc(Cl)cc3OC)nc2C)cc1C` [Example 23-82], the figure is 0.1 µM; as for `COc1ccccc1-c1nc(C)c(C(=O)N/N=C/c2ccc3cc[nH]c3c2)s1` [Example 23-91], 0.1 µM; as for `COc1cc(F)ccc1-c1nc(C)c(NC(=O)OCc2ccc3c(c2)nc2n3C(C)CCC2)s1` (stereo not drawn) [Example 9-116], 10 µM.
`COc1ccc(/C=N/NC(=O)c2sc(-c3cccc4c3OCCO4)nc2C)cc1O` [Example 23-154]: the minimal effective concentration worked out at 10 µM.
Turning to `COc1cc(C)ccc1-c1nc(C)c(NC(=O)OCc2ccc3c(c2)nnn3C)s1` [Example 9-16], the minimal effective concentration is 0.00625 µM.
As for `COc1cc(F)ccc1-c1nc(C)c(NC(=O)OCc2ccc3c(c2)nc(C)n3C)s1` [Example 9-75], the figure is 0.1 µM.
As for `COc1cc(C)ccc1-c1nc(C)c(NC(=O)OCc2ccc3c(c2)nc(C)n3C)s1` [Example 9-77], the minimal effective concentration is 0.025 µM.
In the case of `CCn1cc2ccc(COC(=O)Nc3cc(-c4ccc(C)cc4C)nn3CC)cc2n1` [Example 9-305], the minimal effective concentration was determined as 1 µM.
For `COc1cc(F)ccc1-c1nc(C)c(NC(=O)OCc2ccc3c(c2)nc2n3CCCC2)s1` [Example 9-111], the minimal effective concentration is 0.1 µM.
